Measurements reported in US6420371B1, “Quinazolinone-containing pharmaceutical compositions for prevention of neovascularization and for treating malignancies” (Madasit Medical Research Services & Development Co., Ltd., priority 1997, dated 2002).
In brackets after ≈: the same amount, converted by molar mass. Several values for one entry are separate records, joined by “and”; a condition that tells them apart may be missing. Identical values can stand only once.

Legend:
[1] = system: bovine corneal endothelial cells; test: Incorporation of sulfate, proline, lysine and glycine into ECM (CDP and NCDP); type: cell-based; details: eight days after seeding
Experimental: Corneal endothelial cells were seeded at a confluent density and grown as described in Example 5 above. The cells were cultured with or without Halofuginone in the presence of either Na2^35SO4 (FIG. 8A), ^3H-proline (FIG. 8B), ^14C-lysine (FIG. 8C) or ^14C-glycine (FIG. […]). Eight days after seeding, the cell layer was dissolved substantially as described in Example 5 above. The underlying ECM was then either trypsinized to determine the effect of Halofuginone on incorporation of labelled material into total protein, substantially as described in Example 5 above, or subjected to sequential digestions with collagenase and trypsin to evaluate the effect of Halofuginone on both collagenase-digestible proteins (CDP) and non-collagenase digestible proteins (NCDP).

[2] = system: bovine aortic endothelial cells; test: 3H-thymidine incorporation into vascular endothelial cells; type: cell-based; details: 48 hours
Experimental: Cultures of vascular endothelial cells were established from bovine aorta as previously described [D. Gospodarowicz, et al., Proc. Natl. Acad. Sci. U.S.A., Vol. 73, p. 4120 (1979)]. Bovine aortic endothelial cells were plated (4×10^4 cells/16 mm well) in DMEM (1 g glucose/liter) supplemental with 10% calf serum, 50 U/ml penicillin, and 50 μ/ml streptomycin at 37° C. in 10% CO2 humidified incubators. Four days after plating, the subconfluent cells were exposed to increasing concentrations of Halofuginone (100-500 ng/ml), in the absence of presence of 1 ng/ml bFGF. ^3H-thymidine (1 μCi/well) was then added for an additional 48 hours, and DNA synthesis was assayed by measuring the radioactivity incorporated into trichloroacetic acid insoluble material [M. Benezra, et al., Cancer Res., Vol 52, pp. 5656-5662 (1992); I. Vlodavsky, et al., Proc. Natl. Acad. Sci. U.S.A. Vol. 84, pp. 2292-2296 (1987)].

T50 bladder carcinoma = test: Inhibition of in vivo growth of T50 bladder carcinoma in C3H mice; details: for tumor volume (group mean): Halofuginone containing diet 5 mg/kg; for T50 Tumor Size: individual mice, diet containing 5 mg/kg Halofuginone, day 17
Experimental: C3H mice were divided into two groups (6 mice each). The experimental group received a diet containing 5 mg/kg of Halofuginone 3 days prior to the injection of T50 bladder carcinoma cells and during 2 weeks after. […] The right side received 0.4 * 10^5 cells, and the left side received 2 * 10^5 cells. The tumor size was estimated by measurement of tumor length in two directions, using the formula V=LW^2/2, where V is volume, L is length and W is width. At the end of the experiment at day 17, the mice were weighed, the tumors were excised and a sample of the tumor tissue was fixed and processed for histological examination.

rat aortic rings = test: Microvessel formation from rat aortic rings embedded in type I collagen gel; type: cell-based
Experimental: Thoracic aortas were obtained from 1- to 2-month-old SD (Sprague-Dawley) rats sacrificed by decapitation [R. F. Nicosia and A. Ottinetti, Lab. Invest, Vol. 63, pp. 115-122 (1991)]. The aortas were immediately transferred to a Petri dish with PBS. The fibro-adipose tissue around the aorta was carefully removed under a dissecting microscope, and 1 mm-long aortic rings were sectioned and extensively rinsed in PBS. Type I collagen solution (0.2 ml) was added to each 16-mm well and gellation was allowed for 15 min at 37° C. Each aorta ring was transferred and positioned to the center of the gel and another 0.4 ml of the collagen solution was carefully poured on top of the ring. […]

EHS sarcoma = test: Inhibition of in vivo growth of EHS tumor in C57BL/6 mice
Experimental: Animals bearing Engelbreth-Holm-Swarm (EHS) tumors were sacrificed and the tumor tissue was excised and minced under aseptic conditions. The EHS tumor is characterized by a large amount of basement membrane components. A suspension of the tumor tissue in 0.2 ml of PBS was injected subcutaneously in the dorsal posterior region of C57BL/6 male mice. The mice were divided into two groups of 10 mice each. The animals of the experimental group were fed with a diet containing 5 mg/kg Halofuginone for 3 days prior to tumor injection and during 3 weeks after. The tumor size was estimated by measurement of tumor length in two directions, using the formula V=LW^2/2. On the final day of the experiment, i.e., 20 days after tumor injector, the mice were weighed the tumors were exceed and a sample of the tumor tissue was fixed and processed for histological examination.

[3] = system: bovine corneal endothelial cells; test: cells; type: cell-based
Experimental: Cultures of bovine corneal endothelial cells were established from steer eyes and maintained as previously described [D. Gospodarowicz, et al., Exp. Eye Res., No. 25, pp. 75-89 (1997)]. Cells were cultured at 37° C. in 10% CO2 humidified incubators and the experiments were performed with early (3-8) cell passsages.
For preparation of the sulfate-labelled ECM (extra-cellular matrix), corneal endothelial cells were seeded into 4-well plates at a confluent density forming, within 4-6 h, a contact inhibited cell monolayer composed of closely apposed, and growth arrested cells. Under these conditions, the cells remained viable and retained their normal monolayer configuration and morphological appearance up to a concentration of 2 μg/ml halofuginone. Na2[^35S]O4 (540-590 mCi/mmol) was added (40 μCi/ml) one and five days after seeding and the cultures were incubated without medium change. At various intervals after seeding, the subendothelial ECM was exposed by dissolving (5 min., room temperature) the cell layer with PBS containing 0.5% Triton X-100 and 20 mM NH4OH, followed by four washes in PBS [I Viodavsky, et al., Cancer Res., Vol. 43, pp. 2704-2711 (1983), I. Vlodavsky, et al., Proc. Natl. Acad. Sci. USA, Vol. 84 pp. 2292-2296 (1987)]. To determine the total amount of sulfate labeled material, the BCM was digested with trypsin (25 μg/ml, 24 h, 37° C.) and the solubilized material counted in a β-counter.

3T3 fibroblast cells = details: in vitro; cited from earlier work

O=C(CC1NCCCC1O)Cn1cnc2cc(Br)c(Cl)cc2c1=O (centres unmarked) [Halofuginone]
incorporation of sulfate, proline, lysine and glycine into both CDP and NCDP [1]: inhibited
IC50 ([2]; Bos taurus, Endothelial cell, absence of bFGF (FIG. 2A), read-out: concentration giving 50% inhibition of 3H-thymidine incorporation): 0.1 µg/mL (≈ 0.241 µM)
concentration giving 50% inhibition of 3H-thymidine incorporation ([2]; presence of 1 ng/ml bFGF (FIG. 2B)): 100 ng/mL
reduction of tumor size compared to control mice (T50 bladder carcinoma; C3H mice, diet 5 mg/kg Halofuginone): 70-80%
overall weight of mice (T50 bladder carcinoma; Halofuginone treated C3H mice, lower due to lower tumor burden): 24 ± 3.1 g
tumor volume (group mean) (T50 bladder carcinoma; high tumor cell dose): 1.0±0.92 cm^3
T50 Tumor Size (T50 bladder carcinoma; 0.4 * 10^5 cells s.c.): 0.730 cm^3 and 0.510 cm^3 and 0.036 cm^3 and 0.064 cm^3 and 0.150 cm^3
T50 Tumor Size (T50 bladder carcinoma; 2 * 10^5 cells s.c.): 2.0 cm^3 and 1.1 cm^3 (2×) and 0.7 cm^3 and 0.1 cm^3
tumor volume (group mean) (T50 bladder carcinoma; lower tumor cell dose): 0.29±0.28 cm^3
inhibition of microvessel formation (rat aortic rings; 100 ng/ml Halofuginone): almost complete inhibition
inhibition of microvessel formation (rat aortic rings; 250 ng/ml Halofuginone): Complete inhibition
reversibility of inhibition of microvessel formation (rat aortic rings; removal of the drug on day 2): reversed upon removal of the drug on day 2
tumor volume (group mean) (EHS sarcoma; C57BL/6 mice fed Halofuginone 5 mg/kg diet): 1.72±1.85 cm^3
reduction of tumor size compared to control mice (EHS sarcoma; C57BL/6 mice, diet 5 mg/kg Halofuginone): about 75%
weight of mice (EHS sarcoma; Halofuginone-fed C57BL/6 mice, nearly normal weight): 19.7 ± 0.47 g
EHS Tumor Size (EHS sarcoma; individual mice, diet 5 mg/kg Halofuginone, 20 days after tumor injection): 0 cm^3 (2×) and 2.2 cm^3 and 0.04 cm^3 and 6.5 cm^3 and 3.0 cm^3 and 1.3 cm^3 (2×) and 1.2 cm^3 and 1.7 cm^3
inhibition of sulfate incorporation into ECM ([3]; 1 μg/ml Halofuginone): almost complete inhibition
IC50 ([3]; Bos taurus, Endothelial cell, read-out: concentration giving 50% inhibition of sulfate incorporation into ECM): 0.2 µg/mL (≈ 0.482 µM)
concentration up to which cells remained viable with normal monolayer configuration and morphology ([3]; bovine): ≤ 2 μg/ml
proliferation of 3T3 fibroblast cells (3T3 fibroblast cells): inhibit the proliferation
